Test results taken from patent US20020195406A1, “Compositions and methods for disinfecting small diameter water lines” (priority 2001, published 2002).
Where “and” joins values, the source holds several entries; their conditions need not be identical. Equal entries are not always repeated.

Columns and labels:
biofilms = conditions: household bleach 5.25%, glutaraldehyde 3%, isopropanol 15.3%, cited from earlier work; for effluents from biofilms after contact: 15-hours contact; for recolonization returned to pretreatment levels by day: after 15-hours contact
[1] = system: dental unit biofilm bacteria; conditions: 13% (130,000 ppm), used periodically in one facility; cited from earlier work
biofilm bacteria = conditions: free chlorine; cited from earlier work
[2] = half reaction as printed; cited from earlier work
[3] = system: bacteria in biofilms of dental water unit lines; experiment: Microbial counts for 6 dental water units after one 30-min treatment with 1000 ppm ClO2 (Example 1); assay type: cell-based; conditions: for Microbial count of unit effluent water: individual units 31-40; for Microbial count of unit effluent water, mean: mean of 6 units
Procedure: Treatment: This example involved six dental water units, in a preliminary range finding study. The study was run during a particularly warm period of weather, where concomitant warmer municipal water temperatures would be expected to exacerbate biofilm contamination problems. The units were all of the same model, and were fitted with detachable water reservoirs. 100 ml of tap water was placed in each reservoir, and water was then run through the ultrasonic outlets for 30 seconds. Thereafter 30 ml of water was collected aseptically from each outlet. The reservoirs were then disconnected, and water run out of all outlets until the units ran dry. 100 ml of a 1000 ppm treatment solution, prepared as follows, was then placed in each reservoir:
10 ml of a 5.0% sodium chlorite solution was pipetted into a 100-ml volumetric flask already containing 75 ml of deionized water. To that was added 2.0 ml of 13% sodium hypochlorite solution (bleach). Immediately thereafter, 10.0 ml of a 1.9% citric acid solution was added, brought to volume with deionized water, sealed and the flask was agitated to mix the contents.
All outlets were then run until the solution came through each one. The solutions were then left in each unit for 30 minutes, after which the reservoirs were disconnected and the treatment solution was run out until all three outlets from each unit were dry. The reservoirs were then rinsed and filled with water (about 1 liter), and the water then run out of all three outlets until the reservoirs were empty.
[…] Samples were also collected from the tap from which water to operate the units was taken.
Microbial Culture: The water samples were vortex mixed, and then diluted in phosphate-buffered saline in two 10-fold dilutions. The samples were then plated onto yeast extract agar by means of a spiral plater. The plates were incubated at 22° C. for four days, after which they were counted.

[4] = system: bacteria in biofilms of dental water unit lines; experiment: Microbial counts for a dental water unit after three staggered 30-min treatments with 500 ppm ClO2 (Example 2); assay type: cell-based
Text: The level, however, is probably typical of the tap water in the UK, where this study was run. In this study three staggered 30-minute exposures to 500 ppm ClO2 solution were made, and counts then made from 1 to 4 days after each treatment. The techniques of treatment and sampling were similar to those described in Example 1. The ClO2 solution was similarly prepared, using half the level of sodium chlorite and hypochlorite initially, after acidification with citric acid.

[5] = system: bacteria in biofilms of dental water unit lines; experiment: Microbial counts for a dental water unit after three consecutive-day 30-min treatments with 500 ppm ClO2 (Example 3); assay type: cell-based
Procedure: The level, however, is probably typical of the tap water in the UK, where this study was run. In this study the unit was treated as in Example 2, but on three consecutive days. Samples were taken of both the incoming supply water and from the unit before treatment on each day, with a 500 ppm ClO2 solution for 30-minutes, and also 1, 2 and 5 days after the last treatment. This schedule is represented in the chart below, along with the data derived from each water sample.

[6] = system: bacteria in biofilms of dental water unit lines; experiment: Microbial counts from a dental water unit supplied with sterile water after a single 1000 ppm ClO2 30-minute exposure (Example 4); assay type: cell-based
Procedure: Treatment: This study was run on a dental water unit that had been supplied with sterile water for a week, after its normal operation with tap water. The intent of the study was to determine if a unit, once disinfected, and not then re-exposed to tap water with excess levels of micro-organisms, would show the rebound in organism levels that has been observed in the previous examples. The unit was exposed to a single 1000 ppm solution of ClO2, prepared and applied for 30 minutes, as fully described in Example 1. Sampling and counting techniques were also the same.

[7] = system: bacteria in biofilms of dental water unit lines; experiment: Microbial counts for a dental water unit after three staggered 30-min treatments with 500 ppm ClO2 (Example 2); assay type: cell-based; remark: listed apart in the source
[8] = system: microorganisms in small diameter water lines; conditions: after 24 hours of treatment; approximately 10%; cited from earlier work

O=CCCCC=O [glutaraldehyde]
effluents from biofilms after contact (biofilms): free of recoverable bacteria
recolonization returned to pretreatment levels by day (biofilms): 3 days

OCl [hypochlorite]
effect on bacterial counts [1]: dramatic reductions in bacterial counts, but these rise again rather quickly

OCl [hypochlorous acid]
resistance of biofilm bacteria relative to unattached cells (biofilm bacteria): 150-3000 times
oxidation potential [2]: 1.49 V

CC(C)O [isopropanol]
effluents from biofilms after contact (biofilms): free of recoverable bacteria
recolonization returned to pretreatment levels by day (biofilms): 15 days

chlorine dioxide [ClO2]
reduction in the effluent's cfu/ml ([3]; after day two vs T=0, 1000 ppm, 30 min): 27 fold
difference from T=0 ([3]; after day two, 1000 ppm, 30 min): 1.43 logs
DWU effluent count relative to tap water ([3]; day 3 after treatment, 1000 ppm, 30 min): approximated that of the tap water
Microbial count of unit effluent water ([3]; 1 day after 30-min treatment with 1000 ppm ClO2): 1.90 log cfu/ml and 2.08 log cfu/ml and 2.45 log cfu/ml and 3.85 log cfu/ml and 2.30 log cfu/ml and 1.30 log cfu/ml
Microbial count of unit effluent water ([3]; 2 days after 30-min treatment with 1000 ppm ClO2): 2.78 log cfu/ml and 3.56 log cfu/ml and 3.86 log cfu/ml and 3.32 log cfu/ml and 2.51 log cfu/ml and 3.03 log cfu/ml
Microbial count of unit effluent water ([3]; 3 days after 30-min treatment with 1000 ppm ClO2): 3.94 log cfu/ml and 3.85 log cfu/ml and 5.25 log cfu/ml and 4.34 log cfu/ml and 2.62 log cfu/ml and 2.81 log cfu/ml
Microbial count of unit effluent water, mean ([3]; 1 day after 30-min 1000 ppm ClO2): 2.31 log cfu/ml
Microbial count of unit effluent water, mean ([3]; 2 days after 30-min 1000 ppm ClO2): 3.18 log cfu/ml
Microbial count of unit effluent water, mean ([3]; 3 days after 30-min 1000 ppm ClO2): 3.80 log cfu/ml
drop in bacterial colonies per ml of effluent water ([3]; one day after treatment vs T=0, 1000 ppm, 30 min): 2.3 log
bacterial colonies per ml of effluent water ([3]; one day after treatment, numerical value of mean, 1000 ppm, 30 min): 204 colonies per ml
reduction in organisms in the effluent water ([4]; after the first 500 ppm treatment): 83 fold
reduction of unit's count ([4]; after the first 500 ppm treatment (day 0 to day 1)): 1.92 logs
Unit Microbial Count ([4]; day 1, one day after first 30-min 500 ppm treatment (day 0)): 2.66 log cfu/ml
Unit Microbial Count ([4]; day 4, four days after first 500 ppm treatment): 4.66 log cfu/ml
Unit Microbial Count ([4]; day 8, one day after second 500 ppm treatment): 3.04 log cfu/ml
Unit Microbial Count ([4]; day 11, four days after second 500 ppm treatment, before third): 4.18 log cfu/ml
Unit Microbial Count ([4]; day 12, one day after third 500 ppm treatment): 1.60 log cfu/ml
Unit Microbial Count ([4]; day 15, four days after third 500 ppm treatment): 3.15 log cfu/ml
unit count below that of the incoming water ([5]; Day 4): 0.9 logs
unit count below that of the incoming water ([5]; Day 5): 0.8 logs
count in the issuing water higher than the supply water ([5]; Day 8, five days after the last treatment): 1.0 log
Unit Count ([5]; day 2, 1 day after first 30-min 500 ppm treatment): 2.7 log cfu/ml
Unit Count ([5]; day 3, 1 day after second consecutive 500 ppm treatment): 1.8 log cfu/ml
Unit Count ([5]; day 4, 1 day after third consecutive 500 ppm treatment): 2.8 log cfu/ml
Unit Count ([5]; day 5, 2 days after last 500 ppm treatment): 2.3 log cfu/ml
Unit Count ([5]; day 8, 5 days after last 500 ppm treatment): 3.9 log cfu/ml
unit count below that of the incoming water ([5]; one day after the first 500 ppm treatment (day 2)): 1.2 logs
Unit Count ([6]; 4th day post-application): 0 cfu/ml
Microbial Counts, Unit Water ([6]; day 8, 1 day after single 1000 ppm 30-min exposure, sterile water supply, unit active): 2.26 log cfu/ml
Microbial Counts, Unit Water ([6]; day 9, 2 days after exposure, sterile water supply, active): 1.3 log cfu/ml
Microbial Counts, Unit Water ([6]; day 10, 3 days after exposure, sterile water supply, active): 1.3 log cfu/ml
Microbial Counts, Unit Water ([6]; day 11, 4 days after exposure, sterile water supply, active): 0 log cfu/ml
Microbial Counts, Unit Water ([6]; day 14, 7 days after exposure, after passive weekend (days 12-13)): 3.88 log cfu/ml
Unit Count ([6]; days 2-3 post-application, numerical value of 1.3 logs): 20 organisms per ml
Unit Count ([6]; one day after treatment, numerical value): 182 cfu/ml
further drop ([6]; subsequent 2 days after day 8): 10 fold
population drop ([6]; within a day of the ClO2 treatment): about 40,500 microbial organism per ml of water
drop of unit count ([6]; within a day of the ClO2 treatment, from pre-treatment average of 4.61 logs): 2.35 log cfu/ml
Unit Microbial Count ([7]; day 7, seven days after first 500 ppm treatment, before second): 5.83 log cfu/ml
Unit Microbial Count ([7]; day 18, 7 days after third 500 ppm treatment): 4.08 log cfu/ml

povidone-iodine
numbers of bacteria after treatment [8]: greatly reduced
regrowth of bacteria after treatment [8]: quickly begin to rise after eight days
